Measured values from patent US20220117920A1, “N-Aryl Benzenesulfonamides as Protonophores for the Treatment of Cancers, Metabolic Diseases and Traumatic Brain Injury” (University of Kentucky Research Foundation, priority 2019, published 2022).

Assays:
AMPK = test: Western blot of AMPK (T172) and ACC (S79) phosphorylation in CRC cells; type: cell-based, human; details: for ACC (S79 phosphorylation) / AMPK activity (T172 phosphorylation): 3 μM; for AMPK activation: concentration not given
Procedure: (§1) Biochemistry. Western blotting: Cells were lysed in the appropriate volume of lysis buffer: 50 mM HEPES, 100 mM NaCl, 2 mM EDTA, 1% (v/v) glycerol, 50 mM NaF, 1 mM Na3VO4, 1% (v/v) Triton X-100, with protease inhibitors. The following antibodies were used: AMPK (Cell Signaling, 2532, Cell Signaling Technologies, Danver, Mass., USA), pAMPK (Cell Signaling, 2535), ACC (Cell Signaling, 3676), pACC (Cell Signaling, 11818), Actin (Sigma, A1978). Antibodies for Axin 2, c-Myc and Cyclin D1 have been described previously. ATP analysis: Cells growing in 12-well plates were treated with DMSO or inhibitors in DMSO solution and lysed by adding 1 mL boiling doubly distilled water. Supernatants were analyzed by luminescence using ATP Determination Kit (Invitrogen, A22066; Thermo Fisher Scientific, Waltham, Mass., USA).

Wnt signaling [1] = test: Wnt reporter assay, stable HEK293T cell line containing TOPFlash reporter, LiCl-activated; type: cell-based, human
Excerpt: (§2) To identify novel Wnt regulators by high throughput screening, a stable HEK293T cell line containing the TOPFlash reporter was established. To identify Wnt inhibitors that targeted molecular events downstream of β-catenin, we treated these cells with lithium chloride to inhibit GSK3 and to stabilize β-catenin. […] We also validated the results by transient transfection of Super 8× TOPFlash or 8× FOPFlash into HEK293T cells. […] Since the results from the stable and transient transfection are compatible, we used stable cell lines for all of the other experiments.
(§3) Reporter assay. Wnt reporter assay and cell staining assay have been described previously. We subcloned Super 8×TOPFlash (provided by Professor Randall Moon, University of Washington) into the pGL4.83 [hRlucP/Puro] Vector and transfected it into HEK293T cells. A stable HEK293T cell line containing the TOPFlash reporter was established using puromycin selection. To screen Wnt inhibitors that block the downstream signaling transduction pathway of β-catenin, we treated the reporter cells with 25 mM LiCl to stabilize β-catenin and activate Wnt signaling. The potential Wnt inhibitors identified from screening were validated by transfecting TOPFlash or FOPFlash plus control renilla reporters into HEK293T cells, and then treating the cells with DMSO or testing compounds in DMSO solution. The Wnt signaling was activated by LiCl or Wnt3A treatment.

Wnt target genes = test: Western blot of Wnt signaling components and downstream targets in CRC cell lines; type: cell-based, human; details: three CRC cell lines
Procedure: as §1

[2] = tested on: mitochondrial ATP production; test: Agilent Seahorse XF Real-Time ATP Rate Assay; type: cell-based, human
Procedure: Seahorse assay. Approximately 3×10^4 cells were seeded in XF96 Cell Culture microplate (80 μL of 3.75×10^5 cells/mL) for all experiments. On the next day, cell culture media were replaced with either Seahorse XF modified media with 25 mM glucose and 1 mM pyruvate. After media exchange, cells were treated with 1 μM of oligomycin A, 1.0 μM FCCP and mixture of 1.0 μM of rotenone and 1.0 μM of antimycin A in standard mitochondrial stress test conditions. To determine the uncoupler effects, FCCP was replaced with an equal volume of DMSO, or a compound to be tested in DMSO solution. ATP production rate was analyzed using Agilent Seahorse XF Real-Time ATP Rate Assay.

[3] = tested on: LS174T and DLD-1 CRC cells; test: Cell proliferation assay in colon cancer cells; type: cell-based, human
Procedure: Cell culture. LS174T colon cancer cells were cultured in EMEM (ATCC, 30-2003) containing 10% (v/v) Fetal Bovine Serum (Sigma F0926, Sigma Aldrich Corp., St. Louis, Mo., USA). The DLD-1, SW480 and SW620 colon cancer cells were cultured in DMEM (Sigma D6429) containing 10% (v/v) Fetal Bovine Serum (Sigma, F0926). For proliferation assays, cells (3.5×10^4 cells per well) were split into 12-well plates. After 24 h, 1 μL of each compound in DMSO solution were added to each well. DMSO was used as a control. Each experiment was done in triplicate. Cell viability and number were analyzed using the Vi-Cell XR Cell Viability Analyzer (Beckman Coulter, Indianapolis, Ind., USA).

Wnt signaling [4] = test: Transient transfection of Super 8× TOPFlash or 8× FOPFlash into HEK293T cells; type: cell-based, human
Excerpt: as §2
as §3, with “The Wnt signaling was activated by LiCl or Wnt3A treatment.” left out

DLD-1 cells = test: Seahorse uncoupling assay (OCR) in DLD-1 cells; type: cell-based, human; details: for oxidative phosphorylation: data not shown
[5] = tested on: mitochondrial membrane potential; test: Mitochondria membrane potential assay (TMRM staining); type: cell-based, human; details: FTU-11 at 3 μM
Procedure: Mitochondria Membrane potential assay: DLD-1 and LS174T cells were plated onto 24-well plates and maintained in DMEM (DLD-1) and RPMI1640 (LS174T) with 10% (v/v) (DLD-1) and 5% (v/v) (LS174T) serum for one day. The cells were treated with DMSO or a testing compound in DMSO solution for 2 h, followed by staining with 100 nM tetramethylrhodamine methyl ester perchlorate (TMRM) (Cayman Chemical Company, MI, USA) for 15 min. Cells were rinsed once with PBS and then observed under fluorescence microscopy at 568 nm.

[6] = tested on: purified mitochondria from mouse liver; test: Uncoupling assay (OCR) using purified mitochondria from mouse livers; type: biochemical
Procedure: All the steps were carried out at 4° C. or on ice. After mice were euthanized with CO2 followed by rapid decapitation, whole liver was quickly dissected out on a cold block and homogenized using a Teflon-glass dounce homogenizer containing isolation buffer (215 mM mannitol, 75 mM sucrose, 0.1% BSA, 20 mM HEPES, 1 mM EGTA, adjusted to pH 7.2 with KOH). The homogenate was transferred to a 2 mL-microcentrifuge tube and spun at 1,300×g for 3 min. The supernatant was transferred to a fresh 2 mL-microcentrifuge tube and spun at 13,000×g for 10 min. The supernatant was discarded, and the crude mitochondrial pellet was resuspended in a 1.5 mL-microcentrifuge tubes and pelleted again at 10,000×g for 10 min. The supernatant was discarded, and the mitochondrial pellets were resuspended in isolation buffer to obtain an approximate concentration ≥10 mg/mL of mitochondria. The absolute protein concentration was determined using a bicinchoninic acid (BCA) protein assay kit (Pierce, Cat #23,227) by recording absorbance at 560 nm on a Biotek Synergy HT plate reader (Winooski, Vt., USA).
Mitochondrial Bioenergetics Measurements. Mitochondrial bioenergetic measurements were carried out using a Seahorse XFe96 Extracellular Flux Analyzer (Agilent Technologies, Santa Clara, Calif., USA) to measure oxygen consumption rate (OCR) during various states of respiration. The OCR were measured in the presence of different substrates, inhibitors and uncouplers of the electron transport chain using previous methods with slight modifications. The stocks used for the assays were 500 mM pyruvate, 250 mM malate, and 30 mM adenosine diphosphate (ADP), and 1 M succinate (pH for all was adjusted to 7.2). […] Stock solutions of FH535, Y3, FH535-M, and Y3-M were prepared at 5 mM in 100% DMSO. As per the instructions from XFe96 Extracellular Flux kit, the sensor cartridge was hydrated with water and kept at 37° C. overnight before the experiment. One hour before the assay was conducted, water was removed from assay plates and XF calibrant was added before re-incubation. The injection ports A to D of the sensor cartridge were loaded with 25 μL of different combinations of the above substrates/inhibitors/uncouplers as follows. Before loading, the stocks were diluted appropriately in the respiration buffer (RB) (125 mM KCl, 0.1% BSA, 20 mM HEPES, 2 mM MgCl2, and 2.5 mM KH2PO4; pH 7.2) to get the final concentrations in the respiration chamber of 5 μM pyruvate, 2.5 μM malate, 10 μM of succinate and 1 μM ADP (via Port A), 1 μM oligomycin A (via Port B), 4 μM FCCP or 5 μM/1 μM FH535 or 5 μM/1 μM Y3 or 5 μM/1 μM FH535-M or 5 μM/1 μM Y3-M (via Port C) and 0.1 μM antimycin A (via Port D) starting with the initial volume of 175 μL RB in the chamber and diluting it to 9×, 10×, 11× and 12× with every injection through ports A to D, respectively. Once loaded, the sensor cartridge was placed into the Seahorse XFe96 Flux Analyzer for automated calibration. Seahorse Standard XFe96 assay plates were used for loading mitochondria. Initially total mitochondria were diluted to 6 μg/30 μL in RB and 30 μL was loaded in each well resulting in 6 μg mitochondria/well. The assay plates were centrifuged at 3,000 rpm for 4 min at 4° C. to adhere liver mitochondria at the bottom of the wells. After centrifugation, 145 μL RB (pre-incubated to 37° C.) was added without disturbing the mitochondrial layer to obtain a final volume of 175 μL per well. […]

LS174T cells = test: ATP analysis (luminescence) in LS174T cells; type: cell-based, human; details: 10 mM
Procedure: as §1

c1cc(-c2cnn3cc(-c4ccc(OCCN5CCOCC5)cc4)cnc23)ccn1 [Compound C, 4-(2-(4-(3-(pyridin-4-yl)pyrazolo[1,5-a]pyrimidin-6-yl)phenoxy)ethyl)morpholine, reference compound]
urea-induced AMPK phosphorylation and ACC phosphorylation (AMPK; 5 μM): decreased
rescue of Wnt signaling inhibited by FTU-11 (3 μM) and FDN-4E (3 μM) (Wnt signaling [1]; 5 μM): no effect

O=C(Nc1nnc(C(F)(F)F)s1)NC(CC(F)(F)F)(C(F)(F)F)C(F)(F)F [FTU-11, 1-(1,1,1,4,4,4-hexafluoro-2-(trifluoromethyl)butan-2-yl)-3-(5-(trifluoromethyl)-1,3,4-thiadiazol-2-yl)urea]
ACC (S79 phosphorylation) (AMPK): inhibited ACC
AMPK activity (T172 phosphorylation) (AMPK): increased AMPK activity
AMPK activation (AMPK): equal in potency to FDN-4E
Wnt target genes (Wnt target genes): inhibited Wnt target genes
rate of ATP production in mitochondria ([2]; 3 μM): decreased the rates of ATP production in mitochondria
concentration at which Wnt signaling was inhibited (Wnt signaling [1]; 96-well assay using stable cell line): 0.5 mM
proliferation of colon cancer cells [3]: inhibited the proliferation of colon cancer cells at sub-micromolar concentrations
TOPFlash and FOPFlash activity (Wnt signaling [4]): inhibited TOPFlash but not FOPFlash activity
uncoupling: OCR inhibited by oligomycin (DLD-1 cells; testing compound 3 μM): increased OCR inhibited by oligomycin
mitochondrial membrane potential [5]: reduced mitochondrial membrane potential
mitochondrial membrane potential ([5]; listed as FTC-11): significantly reduced the membrane potential of mitochondria

O=C(Nc1ccc(C(F)(F)F)cc1)Nc1cc(F)c(F)c(F)c1 [FDN-4E, 1-(4-(trifluoromethyl)phenyl)-3-(3,4,5-trifluorophenyl)urea]
ACC (S79 phosphorylation) (AMPK): inhibited ACC
AMPK activity (T172 phosphorylation) (AMPK): increased AMPK activity
Wnt target genes (Wnt target genes): inhibited Wnt target genes
inhibition of Wnt signaling (Wnt signaling [1]; concentration not given): inhibited Wnt signaling
proliferation of colon cancer cells [3]: inhibited the proliferation of colon cancer cells at sub-micromolar concentrations
TOPFlash and FOPFlash activity (Wnt signaling [4]): inhibited TOPFlash but not FOPFlash activity

antimycin [reference compound]
AMPK activation (AMPK): activated AMPK
inhibition of Wnt signaling (Wnt signaling [1]; concentration not given): inhibited Wnt signaling
oxidative phosphorylation (DLD-1 cells): inhibited oxidative phosphorylation

Cc1cc([N+](=O)[O-])ccc1N(C)S(=O)(=O)c1cc(Cl)ccc1Cl [FH535-M, 2,5-dichloro-N-methyl-N-(2-methyl-4-nitrophenyl)benzenesulfonamide]
uncoupling: OCR blocked by oligomycin ([6]; 5 μM/1 μM): inactive
AMPK activity (T172 phosphorylation) (AMPK): lost activities
inhibition of Wnt signaling (Wnt signaling [1]; 3 μM): lost activities
uncoupling: OCR inhibited by oligomycin (DLD-1 cells; testing compound 3 μM): no longer functioned as a mitochondrial uncoupler

O=CC[C@@H](O)[C@H](O)[C@H](O)CO [2-DG, 2-deoxy-D-glucose]
AMPK activation (AMPK): activated AMPK
inhibition of Wnt signaling (Wnt signaling [1]; concentration not given): inhibited Wnt signaling
ATP levels (LS174T cells): reduced ATP levels

N#Cc1c(O)c2c(-c3ccc(-c4ccccc4O)cc3)csc2[nH]c1=O [A769662, 4-hydroxy-3-(2′-hydroxy-[1,1′-biphenyl]-4-yl)-6-oxo-6,7-dihydrothieno[2,3-b]pyridine-5-carbonitrile, reference compound]
AMPK activity (ACC S79 phosphorylation) (AMPK; without affecting AMPK phosphorylation): Increased AMPK activity
inhibition of Wnt signaling (Wnt signaling [1]; 10 μM): did not inhibit Wnt signaling

N#CC(C#N)=NNc1ccc(OC(F)(F)F)cc1 [FCCP, N-(4-(trifluoromethoxy)phenyl)carbonohydrazonoyl dicyanide, reference compound]
uncoupling: OCR blocked by oligomycin ([6]; control, 1 μM): rescued
AMPK activation (AMPK): strongly activated AMPK
rate of ATP production in mitochondria ([2]; 1 μM, control): decreased the rates of ATP production in mitochondria
inhibition of Wnt signaling (Wnt signaling [1]; concentration not given): inhibited Wnt signaling
uncoupling: OCR inhibited by oligomycin (DLD-1 cells; 1 μM, control): increased OCR inhibited by oligomycin

C=C(C)[C@H]1Cc2c(ccc3c2O[C@@H]2COc4cc(OC)c(OC)cc4[C@@H]2C3=O)O1 [rotenone, reference compound]
AMPK activation (AMPK): activated AMPK
inhibition of Wnt signaling (Wnt signaling [1]; concentration not given): inhibited Wnt signaling
oxidative phosphorylation (DLD-1 cells): inhibited oxidative phosphorylation

CN(c1ccc([N+](=O)[O-])c2ccccc12)S(=O)(=O)c1cc(Cl)ccc1Cl [Y3-M, 2,5-dichloro-N-methyl-N-(4-nitronaphthalen-1-yl)benzenesulfonamide]
uncoupling: OCR blocked by oligomycin ([6]; 5 μM/1 μM): inactive
AMPK activity (T172 phosphorylation) (AMPK): lost activities
inhibition of Wnt signaling (Wnt signaling [1]; 3 μM): lost activities
uncoupling: OCR inhibited by oligomycin (DLD-1 cells; testing compound 3 μM): failed as a mitochondrial uncoupler

CC[C@H]1/C=C/C=C/C[C@@H](C)[C@H](O)[C@@](C)(O)C(=O)[C@@H](C)[C@H](O)[C@@H](C)C(=O)[C@@H](C)[C@H](O)[C@@H](C)/C=C/C(=O)O[C@@H]2[C@H](C)[C@H](CC1)O[C@]1(CC[C@H](C)[C@H](C[C@@H](C)O)O1)[C@H]2C [oligomycin, reference compound]
AMPK activation (AMPK): activated AMPK
inhibition of Wnt signaling (Wnt signaling [1]; concentration not given): inhibited Wnt signaling
oxidative phosphorylation (DLD-1 cells): inhibited oxidative phosphorylation

O=C1[C@H](Cc2ccc(O)cc2)N2C(=O)CCN(C(=O)NCc3ccccc3)[C@H]2CN1Cc1cccc2ccccc12 [ICG-001, (6S,9aS)—N-benzyl-6-(4-hydroxybenzyl)-8-(naphthalen-1-ylmethyl)-4,7-dioxohexahydro-2H-pyrazino[1,2-c]pyrimidine-1(6H)-carboxamide, reference compound]
AMPK activation (AMPK): no effect on AMPK
inhibition of Wnt signaling (Wnt signaling [1]; concentration not given): only inhibited Wnt signaling
